Assay results taken from patent publication US20240270821A1, “GIP/GLP1/GCG TRI-RECEPTOR AGONISTS AND USES THEREOF” (priority 2023, published 2024).
Starred links: 1 amine or outer side, 2 acyl side, 3 side chain; linkers in the order of their positions; H or OH if unused. Non-standard residues stand in square brackets, D forms with d. Groups on a side chain read outwards from the residue. *: point of attachment. C18 diacid = O=C(O)CCCCCCCCCCCCCCCCC(=O)*; γGlu = O=C(O)[C@H](CCC(=O)[*:2])N[*:1]; αMe4Pal = C[C@](N)(Cc1ccncc1)C(=O)O; 4Pal = N[C@@H](Cc1ccncc1)C(=O)O; αMeL = CC(C)C[C@](C)(N)C(=O)O; Orn = NCCC[C@H](N)C(=O)O; AEEA = NCCOCCOCC(=O)O; Aib = CC(C)(N)C(=O)O

What was measured:
human GcgR = human GcgR (Homo sapiens, UniProt P47871); experiment: Functional cAMP activity in the presence of 1% HSA; type: cell-based; details: read-out: cAMP Rel EC50, hGcgR
Sequence of human GcgR (P47871 26-477): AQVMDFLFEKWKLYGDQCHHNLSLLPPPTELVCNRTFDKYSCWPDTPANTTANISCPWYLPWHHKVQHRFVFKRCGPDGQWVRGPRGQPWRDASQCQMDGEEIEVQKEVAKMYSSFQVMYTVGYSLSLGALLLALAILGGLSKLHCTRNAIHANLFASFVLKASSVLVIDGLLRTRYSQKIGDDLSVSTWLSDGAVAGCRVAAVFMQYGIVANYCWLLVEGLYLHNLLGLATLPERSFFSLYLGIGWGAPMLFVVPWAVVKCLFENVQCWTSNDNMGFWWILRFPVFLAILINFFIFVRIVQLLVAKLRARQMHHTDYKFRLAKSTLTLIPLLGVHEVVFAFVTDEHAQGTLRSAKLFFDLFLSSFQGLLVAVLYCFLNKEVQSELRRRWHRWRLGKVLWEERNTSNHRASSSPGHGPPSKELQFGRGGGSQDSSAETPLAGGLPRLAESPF

hGIPR [1] = target: T1, hGIPR (Homo sapiens, UniProt P48546); experiment: Functional cAMP activity in the presence of 1% HSA; type: cell-based; details: read-out: cAMP Rel EC50, hGIPR
T1 sequence (P48546 22-466): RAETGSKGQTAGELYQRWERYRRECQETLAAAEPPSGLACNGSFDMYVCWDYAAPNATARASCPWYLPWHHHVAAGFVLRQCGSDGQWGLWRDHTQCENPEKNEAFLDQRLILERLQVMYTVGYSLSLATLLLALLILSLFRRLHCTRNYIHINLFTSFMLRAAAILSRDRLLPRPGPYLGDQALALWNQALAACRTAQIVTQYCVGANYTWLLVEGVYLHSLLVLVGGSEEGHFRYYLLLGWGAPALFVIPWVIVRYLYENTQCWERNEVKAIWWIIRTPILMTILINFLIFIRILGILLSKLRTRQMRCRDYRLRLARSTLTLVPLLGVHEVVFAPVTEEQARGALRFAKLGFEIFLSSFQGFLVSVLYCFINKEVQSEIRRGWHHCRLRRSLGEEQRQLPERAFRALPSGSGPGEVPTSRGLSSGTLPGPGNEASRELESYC

hGLP-1R [2] = target: T2, hGLP-1R (Homo sapiens, UniProt P43220); experiment: Functional cAMP activity in the presence of 1% HSA; type: cell-based; details: read-out: cAMP Rel EC50, hGLP-1R
T2 sequence (P43220 24-463): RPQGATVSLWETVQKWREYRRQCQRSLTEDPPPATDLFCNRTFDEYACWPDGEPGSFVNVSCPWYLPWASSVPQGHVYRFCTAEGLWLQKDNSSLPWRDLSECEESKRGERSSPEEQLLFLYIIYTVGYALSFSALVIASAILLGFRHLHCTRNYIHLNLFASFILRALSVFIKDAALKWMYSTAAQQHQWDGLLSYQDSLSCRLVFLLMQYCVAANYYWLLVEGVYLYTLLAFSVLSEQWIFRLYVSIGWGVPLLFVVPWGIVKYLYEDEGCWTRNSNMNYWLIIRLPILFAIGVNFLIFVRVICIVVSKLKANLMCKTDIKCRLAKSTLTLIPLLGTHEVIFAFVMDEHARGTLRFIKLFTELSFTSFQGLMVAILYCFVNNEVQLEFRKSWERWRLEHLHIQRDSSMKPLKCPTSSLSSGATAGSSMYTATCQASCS

hGIPR [3] = target: T1, hGIPR; experiment: Functional cAMP activation in the presence of 0.1% casein (no HSA); type: cell-based; details: in the presence of 0.1% casein (no HSA); geometric mean; read-out: Relative cAMP EC50, hGIPR;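 on Relative cAMP EC50, hGIPR: intracellular cAMP rise after 30 min at 37 °C read by HTRF against a standard curve, scaled between buffer alone (0%) and top control ligand concentration (100%), four-parameter fit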;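 on Relative cAMP EC50, hGLP-1R: intracellular cAMP rise after 30 min at 37 °C read by HTRF, normalized between buffer only (0%) and maximal control ligand (100%), four-parameter variable-slope fit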;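 on Relative cAMP EC50, hGcgR: intracellular cAMP rise after 30 min at 37 °C, read by HTRF against a cAMP standard curve, scaled from buffer only (0%) to maximal control ligand response (100%)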
hGcgR = hGcgR (Homo sapiens, UniProt P47871); experiment: as above; type: cell-based; details: in the presence of 0.1% casein (no HSA); geometric mean; read-out: Relative cAMP EC50, hGcgR;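 further: intracellular cAMP rise after 30 min at 37 °C, read by HTRF against a cAMP standard curve, scaled from buffer only (0%) to maximal control ligand response (100%)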
Sequence of hGcgR (P47871 26-477): as the sequence (P47871 26-477) above

hGLP-1R [4] = target: T2, hGLP-1R; experiment: as above; type: cell-based; details: in the presence of 0.1% casein (no HSA); geometric mean; read-out: Relative cAMP EC50, hGLP-1R
human GLP1-R = human GLP1-R (Homo sapiens, UniProt P43220); experiment: GLP1-R internalization assay in HEK293 cells; type: cell-based; details: for EC50: HEK293 cells expressing SNAP-GLP-1R, read-out: GLP1R Internalization EC50; for Internalization % TOP: normalized to maximum concentration of GLP-1 (100%)
Sequence of human GLP1-R (P43220 24-463): as the sequence (P43220 24-463) above

[5] = test system: Intestinal organoid from Göttingen minipig jejunum tissue, 2D monolayer; experiment: Cell based in vitro permeability (Papp) assay; type: in vitro ADME
Outline: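 2D monolayers derived from Göttingen minipig jejunal organoids on transwell inserts. Basal samples collected at 20 min in the presence of C10. Peptide in apical and basal compartments quantified by LC/MS to give Papp.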

| Substance | EC50 (human GcgR) [nM] | EC50 (hGIPR [1]) [nM] | EC50 (hGLP-1R [2]) [nM] | EC50 (hGIPR [3]) [nM] | EC50 (hGcgR) [nM] | EC50 (hGLP-1R [4]) [nM] | EC50 (human GLP1-R) [nM] | Internalization % TOP (human GLP1-R) [%] | Relative Papp (Compared to internal standard) [5] |
| --- | --- | --- | --- | --- | --- | --- | --- | --- | --- |
| H-Y[Aib]QGTFTSDFS[Orn][αMeL]LDKK([AEEA-AEEA-γGlu-C18 diacid])AQ[Aib]AFIEWLLEGGHSSGAPPPSGE-NH2 [Example 169] | 439 | 21.5 | 216 | 0.209 | 11.7 | 6.17 | 178 | 49.4 | 0.12 |
| H-Y[Aib]QGTFTSDFS[Orn][αMeL]LDKK([AEEA-AEEA-γGlu-C18 diacid])AQ[Aib]AFIEYLLE[Aib]GHSSGAPPPSGE-NH2 [Example 186] | 1280 | 18 | 690 | 0.107 | 4.67 | 5.26 | 124 | 41.1 | 0.10 |
| H-Y[Aib]QGTFTSDFS[Orn][αMeL]LDKK([AEEA-AEEA-γGlu-C18 diacid])AQ[Aib]AFIEYLLE[Aib]GPSSGAPPPSGT-NH2 [Example 165] | 1250 | 18.6 | 808 | 0.0956 | 4.47 | 6.52 | 57.5 | 44.5 | 0.09 |
| H-Y[Aib]QGTFTSDFS[Orn][αMeL]LDKK([AEEA-AEEA-γGlu-C18 diacid])AQ[Aib]AFIEYLLE[Aib]G[4Pal]SSGAPPPSGE-NH2 [Example 189] | 853 | 22.2 | 423 | 0.0695 | 6.28 | 4.46 | 103 | 45.8 | 0.17 |
| H-Y[Aib]QGTFTSDFS[Orn][αMeL]LDKK([AEEA-γGlu-C18 diacid])AQ[Aib]AFIEWLLEGGPSSGAPPPTGS-NH2 [Example 250] | 201 | 11.7 | 194 | 0.154 | 3.81 | 2.08 | 97 | 45 | 0.11 |
| H-Y[Aib]QGTFTSDFS[Orn][αMeL]LDKK([AEEA-γGlu-C18 diacid])AQ[Aib]AFIEWLLEGGSSSGAPPPSGT-NH2 [Example 174] | 307 | 20.8 | 208 | 0.198 | 4.24 | 2.33 | 123 | 52.8 | 0.12 |
| H-Y[Aib]QGTFTSDFS[Orn][αMeL]LDKK([AEEA-γGlu-C18 diacid])AQ[Aib]AFIEYLLE[Aib]GHSSGAPPPSGS-NH2 [Example 241] | 543 | 9.36 | 264 | 0.0748 | 2.71 | 2.3 | 64.4 | 37.6 | 0.10 |
| H-Y[Aib]QGTFTSDFS[Orn][αMeL]LDKK([AEEA-γGlu-C18 diacid])AQ[Aib]AFIEYLLE[Aib]GPSS[Aib]APPPSGS-NH2 [Example 238] | 334 | 8.78 | 262 | 0.0909 | 2.78 | 2.71 | 32.1 | 38.2 | 0.06 |
| H-Y[Aib]QGTFTSDFS[Orn][αMeL]LDKK([AEEA-γGlu-C18 diacid])AQ[Aib]AFIEYLLE[Aib]G[4Pal]SSGAPPPSGS-NH2 [Example 242] | 484 | 5.94 | 242 | 0.0916 | 3.5 | 3.42 | 56 | 38.2 | 0.07 |
| H-Y[Aib]QGTFTSDFS[Orn][αMeL]LDKK([AEEA-γGlu-C18 diacid])AQ[Aib]AFIEYLLE[dA]GPSSGAPPPSGS-NH2 [Example 209] | 433 | 23.3 | 276 | 0.129 | 3.08 | 1.78 | 83.1 | 41.2 | 0.08 |
| H-Y[Aib]QGTFTSDFS[Orn][αMeL]LDKK([AEEA-γGlu-C18 diacid])AQ[Aib]AFIEYLLE[dA]GPSSGAPPPSG[4Pal]-NH2 [Example 211] | 370 | 20.6 | 234 | 0.116 | 2.05 | 1.23 | 57.4 | 26.9 | 0.06 |
| H-Y[Aib]QGTFTSDFS[Orn][αMeL]LDKK([AEEA-γGlu-C18 diacid])AQ[Aib]AFIEYLLE[dA]GPSS[Aib]APPPSGT-NH2 [Example 214] | 302 | 15.1 | 186 | 0.103 | 2.49 | 1.22 | 50.1 | 41.7 | 0.07 |
| H-Y[Aib]QGTFTSDFS[Orn][αMeL]LDKK([γGlu-AEEA-γGlu-C18 diacid])AQ[Aib]AFIEYLLE[Aib]GPSSGAPPPSGS-NH2 [Example 193] | 1120 | 12.7 | 473 | 0.0609 | 4.51 | 5.19 | 132 | 50.7 | 0.17 |
| H-Y[Aib]QGTFTSDYSR[αMeL]LDKK([AEEA-γGlu-C18 diacid])AQ[Aib]AFIEYLLEGGESSGAPPPSGS-NH2 [Example 361] | 987 | 46.3 | 376 | 0.214 | 2.73 | 2.08 | 50.4 | 73 | 0.10 |
| H-Y[Aib]QGTFTSD[4Pal]SQ[αMeL]LDKK([AEEA-γGlu-C18 diacid])AQ[αMe4Pal]AFIEYLIE[Aib]GESSGAPPPSGE-NH2 [Example 227] | 937 | 39.7 | 418 | 0.17 | 4.22 | 2.34 | 114 | 59.4 | 0.42 |
